Source: US6071884A, “Pharmaceutical compositions and therapeutic methods” (Kirin Beer Kabushiki Kaisha, priority 1992, dated 2000)

How the values were obtained:
blood platelets [1] = assay: Thrombocytopenia-inhibiting effect in X-ray-irradiated mice; type: in vivo, mouse (BDF1); settings: 10 days after 5 Gy X-ray; 0.1 mg/kg i.v. within 2 h; mean ± SD; vehicle per series 10.3, 6.8, 6.7; non-treatment 68.2, 96.9, 73.0
Experimental: Pharmacological Test 5: Thromboclytopenia-Inhibiting Effect
The thrombocytopenia-inhibiting effect of each sample upon an X-ray-irradiated mouser which is one of models with a decreased number of blood platelets was examined.
An experiment was carried out by using 6 week old female BDF1 mice purchased from Japan SLC Co., Ltd., with 6 mice made one group.
5 Gy of X ray was irradiated to the entire body of the mice by a Hitachi X-ray irradiator CMBR-1520R). Within 2 hours after the irradiation, each sample was administered to the caudal vein of the mice at an amount of 0.1 mg/kg.
After 10 days, blood was collected from the fundus vein of the mice, and the number of blood platelets was measured by a sequential multi-channel hemocytometer E-2500/cs (Toa Iyo Denshi Kabushiki Kaisha). The number of blood platelets of the non-treated group, that of the medium-administered group, and that of the sample-administered group are shown in Table 5.

blood platelets [2] = assay: Blood-platelet-increasing effect upon normal mouse; type: in vivo, mouse (BDF1); settings: normal mice; 6 days after 0.1 mg/kg i.v.; mean ± SD; vehicle per series 58.2, 63.0, 71.1
Experimental: Pharmacological Test 6: Blood-Platelet-Increasing Effect upon Mouse
An experiment was carried out by using 6 week old female BDF1 mice purchased from Japan SLC Co., Ltd., with 5 mice made one group.
Each sample was administered to the caudal vein of the mice at a dose of 0.1 mg/kg. After 6 days, blood was collected from the fundus vein of the mice, and the number of blood platelets was measured by a sequential multi-channel hemocytometer E-2500/cs (Toa Iyo Denshi Kabushiki Kaisha). The number of blood platelets of the vehicle-administered group, and that of the sample-administered group are shown in Table 6.

[3] = system: marrow cells (mononuclear cell fraction); assay: Proliferation-stimulating effect on marrow cell of mouse (3H-TdR uptake); type: cell-based, mouse (BALB/c); settings: percentage of control, 72 h; for activity at 0.1 µg/mL: 10^-1 μg/ml; for activity at 0.01 µg/mL: 10^-2 μg/ml; for activity at 0.001 µg/mL: 10^-3 μg/ml; for activity at 1 µg/mL: 10^0 μg/ml
Experimental: Pharmacological Test 1: Proliferation-Stimulating Effect on Marrow Cell of Mouse
Marrow cells were prepared from the thigh bone of a 7 week old female BALB/c mouse purchased from Japan SLC Co., Ltd., and a mononuclear cell fraction (MNF) obtained by fractionation using a lympholyte-M (Cedar Lane, Ontario, Canada) was used in the following experiment.
The concentration of the MNF was adjusted to 1.5×10^6 cells/ml by using 10% FCS RPMI 1640 (Nissui Pharmaceutical Co., Ltd., Tokyo, Japan) as a culture medium. 10 μl/well of a sample with a predetermined concentration and 100 μl/well of the above-prepared MNF were placed on a round-bottomed 96 well plate, and incubated under the conditions of 37° C. and 5% CO2 for 72 hours. Thereafter, 0.5 μCi/well of ^3 H-thymidine (^3 H-TDR) was added. After 8 hour incubation, the cells were harvested, and the amount of the 3H-TdR taken in the nuclei was measured by a liquid scintillation counter.

[4] = Life-span-increasing effect on irradiation of a lethal dose of radiation; type: in vivo, mouse (BDF1); settings: 10 mice/group, 9 Gy X-ray, 0.1 mg/kg i.v. days 0, 4, 8
Experimental: Pharmacological Test 4: Life-Span-Increasing Effect on Irradiation of a Lethal Dose of Radiation
An experiment was carried out by using 6 week old female BDF1 mice purchased from Japan SLC Co., Ltd., with 10 mice made one group.
The entire bodies of the entire body of the mice were irradiated with 9 Gy of X-rays by using a Hitachi X-ray irradiator (MBR-1520R), and the day on which the X-ray was irradiated was referred to as "day 0".

[5] = day 10, controls per series 10, 10, 10, 10, 10, 8
[6] = day 15, controls per series 8, 9, 5, 5, 7, 1
[7] = day 20, controls per series 4, 5, 1, 2, 3, 0
[8] = day 25, controls per series 3, 3, 0, 0, 2, 0
[9] = day 30, controls per series 1, 1, 0, 0, 0, 0

| SMILES | Number of Blood Platelets (blood platelets [1]) | Number of Blood Platelets (blood platelets [2]) | activity at 0.1 µg/mL [3] [%] | activity at 0.01 µg/mL [3] [%] | activity at 0.001 µg/mL [3] [%] | Number of Surviving Mice [4, 5] [mice] | Number of Surviving Mice [4, 6] [mice] | Number of Surviving Mice [4, 7] [mice] | Number of Surviving Mice [4, 8] [mice] | Number of Surviving Mice [4, 9] [mice] | Number of Surviving Mice ([4]; day 35, all controls 0) [mice] | Number of Surviving Mice ([4]; day 40, all controls 0) [mice] | activity at 1 µg/mL [3] [%] |
| --- | --- | --- | --- | --- | --- | --- | --- | --- | --- | --- | --- | --- | --- |
| CCCCCCCCCCCCCCCCCCCCCCCC(=O)N[C@@H](CO[C@H]1O[C@H](CO)[C@H](O)[C@H](O)[C@H]1O)[C@H](O)CCCCCCCCCCCCCCC [Compound 1, (2S,3R)-1-(α-D-galactopyranosyloxy)-2-tetracosanoylamino-3-octadecanol] | 25.4 ± 6.8 × 10^4 /μl | 112.2 ± 6.5 × 10^4 /μl | 465 | 263 | 134 | 10 | 10 | 10 | 9 | 9 | 9 | 9 |  |
| CCCCCCCCCCCCCCCCCCCCCC(=O)N[C@@H](CO[C@H]1O[C@H](CO)[C@H](O)[C@H](O)[C@H]1O)[C@H](O)CCCCCCCCCCCCCCC [Compound 2, (2S,3R)-2-docosanoylamino-1-(α-D-galactopyranosyloxy)-3-octadecanol] | 21.5 ± 5.4 × 10^4 /μl | 96.3 ± 7.3 × 10^4 /μl | 295 | 92 | 123 | 10 | 10 | 9 | 9 | 9 | 9 | 8 | 915 |
| CCCCCCCCCCCCCCCCCCCC(=O)N[C@@H](CO[C@H]1O[C@H](CO)[C@H](O)[C@H](O)[C@H]1O)[C@H](O)CCCCCCCCCCCCCCC [Compound 3, (2S,3R)-1-(α-D-galactopyranosyloxy)-2-icosanoylamino-3-octadecanol] | 20.6 ± 4.5 × 10^4 /μl | 102.0 ± 10.8 × 10^4 /μl | 234 | 87 | 84 | 10 | 9 | 8 | 8 | 8 | 8 | 8 |  |
| CCCCCCCCCCCCCCCCCC(=O)N[C@@H](CO[C@H]1O[C@H](CO)[C@H](O)[C@H](O)[C@H]1O)[C@H](O)CCCCCCCCCCCCCCC [Compound 4, (2S,3R)-1-(α-D-galactopyranosyloxy)-2-octadecanoylamino-3-octadecanol] | 14.3 ± 4.7 × 10^4 /μl | 83.1 ± 6.5 × 10^4 /μl | 297 | 75 | 151 | 10 | 10 | 8 | 7 | 5 | 5 | 5 |  |
| CCCCCCCCCCCCCCC[C@@H](O)[C@H](CO[C@H]1O[C@H](CO)[C@H](O)[C@H](O)[C@H]1O)NC(=O)CCCCCCCCC [Compound 6, (2S,3R)-2-decanoylamino-1-(α-D-galactopyranosyloxy)-3-octadecanol] | 15.4 ± 3.2 × 10^4 /μl | 93.0 ± 12.1 × 10^4 /μl | 391 | 196 | 71 | 9 | 6 | 2 | 2 | 2 | 2 | 2 |  |
| CCCCCCCCCCCCCCC[C@@H](O)[C@H](CO[C@H]1O[C@H](CO)[C@H](O)[C@H](O)[C@H]1O)NC(=O)CCCCCCC [Compound 7, (2S,3R)-1-(α-D-galactopyranosyloxy)-2-octanoylamino-3-octadecanol] | 12.3 ± 4.0 × 10^4 /μl | 76.0 ± 5.1 × 10^4 /μl | 631 | 351 | 313 | 10 | 8 | 6 | 5 | 5 | 5 | 5 | 972 |
| CCCCCCCCCCCCCCC[C@@H](O)[C@H](CO[C@H]1O[C@H](CO)[C@H](O)[C@H](O)[C@H]1O)NC(C)=O [Compound 8, (2S,3R)-2-acetamino-1-(α-D-galactopyranosyloxy)-3-octadecanol] | 8.1 ± 2.6 × 10^4 /μl | 96.6 ± 3.2 × 10^4 /μl | 232 | 81 | 129 | 10 | 5 | 1 | 1 | 1 | 1 | 1 |  |
| CCCCCCCCCCCCCCCCCCCCCCCC(=O)N[C@@H](CO[C@H]1O[C@H](CO)[C@H](O)[C@H](O)[C@H]1O)[C@H](O)CCCCCCCCCCC [Compound 9, (2S,3R)-1-(α-D-galactopyranosyloxy)-2-tetracosanoylamino-3-tetradecanol] | 17.6 ± 3.4 × 10^4 /μl | 100.5 ± 8.3 × 10^4 /μl | 547 | 103 | 134 | 10 | 8 | 6 | 6 | 6 | 6 | 6 |  |
